Earlier results on two compounds are cited in patent publication US7183417B2, “Simple stereocontrolled synthesis of salinosporamide A” (priority 2004, dated 2007).

Broadly, the IC50 is the midpoint of a concentration-inhibition curve.

Data set [1] deals with proteasome. As to conditions: qualitative statement from the literature.
In data set [2] the test system is many tumor cell lines. As to conditions: read-out: in vitro cytotoxic activity IC50.

Regarding `C[C@@]12OC(=O)[C@]1([C@@H](O)[C@@H]1C=CCCC1)NC(=O)[C@@H]2CCCl` [Salinosporamide A], the “proteasome inhibition (in words)” value in data set [1] is reported as “even more effective proteasome inhibitor than omuralide”. The IC50 in data set [2] was ≤ 10 nM. In the case of `CC(C)[C@H](O)[C@@]12NC(=O)[C@H](C)[C@@H]1OC2=O` [omuralide, reference compound], the “proteasome inhibition (in words)” value in data set [1] is reported as “potent inhibitor of proteasome function”.
